Assay results from PMC9916857, “Triterpenoids from Kochiae Fructus: Glucose Uptake in 3T3-L1 Adipocytes and α-Glucosidase Inhibition, In Silico Molecular Docking” (International Journal of Molecular Sciences, 2023).
Entries after “also recorded” stand apart in the source; their conditions may differ. Marks after values point to notes of the source that are not given here.

How the values were obtained:
[1] = target: α-glucosidase; experiment: In vitro α-glucosidase inhibition assay (pNPG substrate); assay type: biochemical; settings: for IC50: mean ± SD, n = 3; for Inhibitory Rate (%): mean ± SD (n = 3)
Description: The α-glucosidase inhibition assay was carried out on the basis of the method reported by Zhang et al., with minor modifications. […] […] To initiate the reaction, pNPG (40 μL) was added to the reaction mixture and incubated at 37 °C for 30 min. The reaction was terminated by adding 20 μL of Na2CO3, after which the absorbance was determined at 405 nm by a microplate reader (SpectraMax190, Micro-g Biotech, Guangzhou, China).

[2] = target: α-glucosidase; experiment: Kinetics of α-glucosidase inhibition (Lineweaver–Burk and Dixon plots); assay type: biochemical; settings: for Ki: Dixon plot, 1/v versus [I], read-out: Ki (inhibitor binding to α-glucosidase); for Inhibition type: Lineweaver–Burk and Dixon plots; for Change of Km and Vmax with increased concentration of inhibitor: Lineweaver–Burk plot
Description: (§1) The kinetic analysis of compounds 3, 9, and 13 were measured using the reaction conditions in Section 3.6. Typically, three different concentrations of each compound around the IC50 values were chosen. Under each concentration, α-glucosidase activity was assayed by varying the concentration of pNPG as a substrate. […] Ki and Ki’ values were determined from 1/v versus [I] (Dixon plot) and S/v versus [I] plots, respectively.

[3] = target: α-glucosidase−pNPG complex; experiment: Kinetics of α-glucosidase inhibition, S/v versus [I] plot (Ki’); assay type: biochemical
Description: as §1

[4] = test system: 3T3-L1 adipocytes; experiment: Insulin-induced glucose uptake assay in 3T3-L1 adipocytes; assay type: cell-based, murine
Description: (§2) The murine 3T3-L1 preadipocytes were supplied by the American Type Culture Collection (ATCC, Manassas, VA, USA). The cells were cultured in high-glucose DMEM supplemented with 10% (v/v) newborn calf serum (NBCS), 1% (v/v) Pen-Strep solution (P/S) at 37 °C in a humidified atmosphere of 5% CO2, and then starved until the cells reached confluence (day 0). Two days later (day 2), the cells were cultured in DMEM supplemented with 10% (v/v) fetal bovine serum (FBS), 1% (v/v) P/S, 0.5 mM 3-isobutyl-1-methylxanthine (IBMX), 1 μM dexamethasone (DEX), 1 μM rosiglitazone (ROSI) and 100 nM insulin. Three days after (day 5) the induction, the culture medium was replaced with DMEM containing 10% (v/v) FBS, 1% (v/v) P/S, and 100 nM insulin for one day (day 6). Then the cells were completely differentiated into mature adipocytes (Figure 11).
The mature adipocytes were inoculated in a 96-well plate at 5 × 10^4 cells per well for 24 h. The 3T3-L1 adipocytes were divided into model groups (blank control), insulin group (250 ng/mL, positive control), and sample group (20 μM). […] The absorbance value was detected by a microplate reader at 505 nm. The glucose uptake rate was calculated as follows:Glucose uptake rate (%) = [1 − A2/A1] × 100(1) where A1 is the absorbance of the mixed-glucose, DMEM-supplemented control, and A2 is the absorbance of the blank, insulin, or sample group.

[5] = test system: 3T3-L1 adipocytes; experiment: Cell viability (CellTiter 96 AQueous One Solution) after the glucose uptake experiment; assay type: cell-based, murine; settings: compounds at 20 μM, compared to the control group
Description: as §2, with “Then the cells were completely differentiated into mature adipocytes (Figure 11).” left out
Cell viability was detected by using a CellTiter 96® AQueous One Solution Cell Proliferation Assay (Promega Corporation, Madison, WI, USA) according to the manufacturer’s instructions after the glucose uptake experiment. CellTiter 96® AQueous One Solution Cell Proliferation Assay reagent (20 µL/well) was added to the plate and incubated at 37 °C for 180 min before absorbance was measured at 490 nm, and the relative cell viability was calculated as follows:Relative cell viability (%) = A1/A2 × 100(2) where […].

[6] = percent inhibition at a concentration of 50 μM

| Compound | IC50 [1] [µM] | Inhibitory Rate (%) [1, 6] | also measured |
| --- | --- | --- | --- |
| CC1(C)CC[C@]2(C(=O)O)CC[C@]3(C)C(=CC[C@@H]4[C@@]5(C)CC[C@H](O)[C@@](C)(C(=O)O)[C@@H]5CC[C@]43C)[C@@H]2C1 [Compound 11, gypsogenic acid] | > 50 | 53.98 ± 1.65 ^e % | – |
| CC1(C)CCC2(C(=O)OC3OC(CO)C(O)C(O)C3O)CCC3(C)C(=CCC4C5(C)CCC(O)C(C)(C)C5CCC43C)C2C1 [Compound 12, oleanolic acid 28-O-β-D-glucopyranosyl ester] | – | 41.48 ± 1.66 ^g % | – |
| COC(=O)C1OC(OC2CCC3(C)C(CCC4(C)C3CC=C3C5CC(C)(C)CCC5(C(=O)O)CCC34C)C2(C)C)C(O)C(OC2OCC(O)C(O)C2O)C1O (centres unmarked) [Compound 5, momordin Ic 6’-methyl ester] | > 50 | 29.62 ± 2.26 ^i % | – |
| C[C@H]1O[C@H](O[C@H]2[C@H](O)[C@@H](O)[C@@H](O[C@H]3[C@H](O)[C@@H](O)C(O)O[C@@H]3CO)O[C@@H]2CO)[C@H](O)[C@@H](O)[C@@H]1N[C@H]1C=C(CO)[C@@H](O)[C@H](O)[C@H]1O (some centres unmarked) [Acarbose, acarbose, reference compound] | – | – | Inhibitory Rate (%) ([1]; percent inhibition at a concentration of 0.012 μM): 87.04 ± 0.29 ^a % |
| COC(=O)C1OC(OC2CCC3(C)C(CCC4(C)C3CC=C3C5CC(C)(C)CCC5(C(=O)OC5OC(CO)C(O)C(O)C5O)CCC34C)C2(C)C)C(O)C(OC2OCC(O)C(O)C2O)C1O (centres unmarked) [Compound 8, momordin IIc 6’-methyl ester] | > 50 | 57.02 ± 36.3 ^e % | – |
| CCOC(=O)C1OC(OC2CCC3(C)C(CCC4(C)C3CC=C3C5CC(C)(C)CCC5(C(=O)O)CCC34C)C2(C)C)C(O)C(OC2OCC(O)C(O)C2O)C1O (centres unmarked) [Compound 6, momordin Ic ethyl ester] | > 50 | 35.00 ± 0.40 ^h % | – |
| COC(=O)C1OC(OC2CCC3(C)C(CCC4(C)C3CC=C3C5CC(C)(C)CCC5(C(=O)O)CCC34C)C2(C)C(=O)O)C(O)C(OC2OCC(O)C(O)C2O)C1O [Compound 2, 3(β)-3-O-β-D-xylopyranosly(1→3)-β-D-glucopyranosiduronic acid 6-methyl ester-12-en-23,28-dioic acid] | > 50 | 14.05 ± 4.90 ^j % | – |
| CC1(C)CCC2(C(=O)OC3OC(CO)C(O)C(O)C3O)CCC3(C)C(=CCC4C5(C)CCC(OC6OC(C(=O)O)C(O)C(OC7OCC(O)C(O)C7O)C6OC6OC(CO)C(O)C(O)C6O)C(C)(C)C5CCC43C)C2C1 [Compound 9, 2’-O-β-D-glucopyranosyl momordin IIc] | 4.29 ± 0.52 | 74.41 ± 1.02 ^b % | Ki [2]: 48.88 ± 0.07 µM; Inhibition type [2]: mixed-type; Change of Km and Vmax with increased concentration of inhibitor [2]: both the Km and Vmax values decreased; Ki’ (inhibitor binding to the α-glucosidase−pNPG complex) [3]: 19.52 ± 0.26 μM |
| CC1(C)CCC2(C(=O)O)CCC3(C)C(=CCC4C5(C)CCC(OC6OC(C(=O)O)C(O)C(OC7OCC(O)C(O)C7O)C6O)C(C)(C(=O)O)C5CCC43C)C2C1 [Compound 1, 3(β)-3-O-β-D-xylopyranosly(1→3)-β-D-glucopyranosiduronic acid-12-en-23,28-dioic acid] | > 50 | 13.71 ± 0.54 ^j % | – |
| CC1(C)CCC2(C(=O)OC3OC(CO)C(O)C(O)C3O)CCC3(C)C(=CCC4C5(C)CC(O)C(O)C(C)(C)C5CCC43C)C2C1 [Compound 3, 2β,3β-dihydroxyolean-12-en-28-oic acid 28-O-β-D-glucopyranoside] | 23.5 ± 3.37 | 59.79 ± 1.04 ^d % | Ki [2]: 56.9 ± 1.23 µM; Inhibition type [2]: mixed-type; Change of Km and Vmax with increased concentration of inhibitor [2]: Vmax values decreased and the Km values increased; Ki’ (inhibitor binding to the α-glucosidase−pNPG complex) [3]: 47.89 ± 1.37 μM |
| CC1(C)CC2C3=CCC4[C@@]5(C)CC[C@H](O)C(C)(C)C5CC[C@@]4(C)[C@]3(C)CC[C@@]2(C(=O)O)[C@H](O)C1 (some centres unmarked) [Compound 13] | 17 ± 2.7 | 69.91 ± 0.59 ^c % | Effect on glucose uptake ([4]; compound at 20 μM, 24 h, p < 0.001 versus model group): potent effect; also recorded: strong effect; also recorded: significant promotion; Cell viability / cytotoxicity [5]: without inhibitory effects on cell viability; Ki [2]: 13.6 ± 0.42 µM; Inhibition type [2]: mixed-type; Change of Km and Vmax with increased concentration of inhibitor [2]: both the Km and Vmax values decreased; Ki’ (inhibitor binding to the α-glucosidase−pNPG complex) [3]: 8.82 ± 0.06 μM |
| CC1(C)CC[C@]2(C(=O)O)CC[C@]3(C)C(=CC[C@@H]4[C@@]5(C)CC[C@H](O[C@@H]6O[C@H](C(=O)O)[C@@H](O)[C@H](O[C@@H]7OC[C@@H](O)[C@H](O)[C@H]7O)[C@H]6O)C(C)(C)[C@@H]5CC[C@]43C)[C@@H]2C1 [Compound 4, momordin Ic] | > 50 | 26.28 ± 1.01 ^i % | – |
| CC1(C)CC[C@]2(C(=O)O[C@@H]3O[C@H](CO)[C@@H](O)[C@H](O)[C@H]3O)CC[C@]3(C)C(=CC[C@@H]4[C@@]5(C)CC[C@H](O[C@@H]6O[C@H](C(=O)O)[C@@H](O)[C@H](O[C@@H]7OC[C@@H](O)[C@H](O)[C@H]7O)[C@H]6O)C(C)(C)[C@@H]5CC[C@]43C)[C@@H]2C1 [Compound 7, momordin IIc] | > 50 | 52.71 ± 0.85 ^f % | – |
| insulin | – | – | Effect on glucose uptake ([4]; insulin at 250 ng/mL (positive control), p < 0.001 versus control group): significantly promote |
| CC1(C)C=C2C3CCC4[C@@]5(C)CC[C@H](O[C@@H]6O[C@H](CO)[C@@H](O)[C@H](O)[C@H]6O)C(C)(C)C5CC[C@@]4(C)[C@]3(C)CC[C@@]2(C(=O)O)CC1 (stereo partly drawn) [Compound 14, (3β)-3-(β-D-glucopyranosyloxy)olean-18-en-28-oic acid] | > 50 | 17.49 ± 4.45 ^j % | – |
